Assay results reported in patent publication US20220226299A1 (NIPPON CHEMIPHAR CO., LTD., priority 2019, published 2022).
Counter-ions that a name gives are not always drawn.

What follows are compounds tested against T1, human Cav3.2 channels (Homo sapiens, UniProt O95180) (assay: T-type calcium blocking action: intracellular calcium (Fluo-4 AM fluorescence) in HEK293 cells steadily expressing human Cav3.2 channels). Conditions: HEK293 cells expressing human Cav3.2; KCl-stimulated calcium influx, Fluo-4 fluorescence; Tables 1 to 3.
T1 construct: human Cav3.2 channel ORF (Open Reading Frame) gene; expressed in transfected cells; host or cells: HEK293 cells (ATCC No. CRL-1573), pcDNA3.1(+) plasmid
Format: cell-based
Text: T-Type Calcium Blocking Action
(1) Construction of Cells Steadily Expressing Human Cav3.2 Channels
A sequence obtained by adding HindIII site and a kozak sequence (GCCACC) to the 5′-side of human Cav3.2 channel ORF (Open Reading Frame) gene and adding a KpnI site to the 3′-side of the gene, was incorporated into pcDNA3.1(+) (Thermo Fisher Scientific, #V790-20), and the plasmid was introduced into HEK293 cells (ATCC No. CRL-1573) according to the protocol of FuGENE (registered trademark) HD Transfection Reagent (Promega, #E2311).
(2) Method for Measuring Intracellular Calcium Concentration
The cells steadily expressing human Cav3.2 channels produced by testing method (1) were seeded on a 96-well plate (Dulbecco's modified Eagle medium (DMEM) medium containing 10% fetal bovine serum (FBS) was used as a medium). The cells were seeded and cultured for 48 hours under conditions of 37° C. and 5% CO2. Thereafter, the cells were washed with buffer A in order to remove the medium. Each well was treated with 80 μL of a fluorescent dye solution produced by mixing 22 μg of a fluorescent calcium indicator, Fluo-4 AM (Dojindo Laboratories, #F311), 20 μL of DMSO, 1 μL of 10% Pluronic F-127 (Thermo Fisher Scientific, #P6866), and 4 mL of buffer A. The cells were allowed to stand for 45 minutes at room temperature under light-shielded conditions, and then washed with buffer B in order to completely replace the solution. 70 μL of DMSO having the same concentration as that of a test compound as a negative control and 70 μL of a mixture containing 1 μM of a known blocker RQ-00311651 and the test compound as a positive control were each added to each well in a form of being contained in the buffer B. The test compound was dissolved in 100% DMSO and added at a final concentration of 0.1%. Then, the cells were further allowed to stand at room temperature under light-shielded conditions for 15 minutes and placed in a microplate reader EnVision (PerkinElmer). Background fluorescence was measured in each well, and then a 5 μg/mL grammicidin solution was added to buffer B at 10 μL/well. After 90 seconds, baseline fluorescence was measured. Thereafter, 83.8 mM KCl was added to buffer B at 20 μL/well, and an increase in fluorescence caused by calcium influx generated by the stimulus was measured for 10 seconds. A blocking percentage was calculated from a maximum fluorescence increase value from a baseline, a logarithmic value of a compound concentration and blockery activity were plotted, and thereby an IC50 value was calculated. In the measurement, fluorescence at 510 nm that was emitted when the cells were irradiated with excitation light at 485 nm was observed.
Buffer A: 140 mM NaCl, 5 mM KCl, 1 mM MgCl2, 0.5 mM CaCl2, 10 mM Glucose, 10 mM HEPES, pH 7.3
Buffer B: 137.9 mM Choline-Cl, 4.1 mM KCl, 1 mM MgCl2, 0.5 mM CaCl2, 10 mM Glucose, 10 mM HEPES, pH 7.3

T1 sequence (O95180 whole entry): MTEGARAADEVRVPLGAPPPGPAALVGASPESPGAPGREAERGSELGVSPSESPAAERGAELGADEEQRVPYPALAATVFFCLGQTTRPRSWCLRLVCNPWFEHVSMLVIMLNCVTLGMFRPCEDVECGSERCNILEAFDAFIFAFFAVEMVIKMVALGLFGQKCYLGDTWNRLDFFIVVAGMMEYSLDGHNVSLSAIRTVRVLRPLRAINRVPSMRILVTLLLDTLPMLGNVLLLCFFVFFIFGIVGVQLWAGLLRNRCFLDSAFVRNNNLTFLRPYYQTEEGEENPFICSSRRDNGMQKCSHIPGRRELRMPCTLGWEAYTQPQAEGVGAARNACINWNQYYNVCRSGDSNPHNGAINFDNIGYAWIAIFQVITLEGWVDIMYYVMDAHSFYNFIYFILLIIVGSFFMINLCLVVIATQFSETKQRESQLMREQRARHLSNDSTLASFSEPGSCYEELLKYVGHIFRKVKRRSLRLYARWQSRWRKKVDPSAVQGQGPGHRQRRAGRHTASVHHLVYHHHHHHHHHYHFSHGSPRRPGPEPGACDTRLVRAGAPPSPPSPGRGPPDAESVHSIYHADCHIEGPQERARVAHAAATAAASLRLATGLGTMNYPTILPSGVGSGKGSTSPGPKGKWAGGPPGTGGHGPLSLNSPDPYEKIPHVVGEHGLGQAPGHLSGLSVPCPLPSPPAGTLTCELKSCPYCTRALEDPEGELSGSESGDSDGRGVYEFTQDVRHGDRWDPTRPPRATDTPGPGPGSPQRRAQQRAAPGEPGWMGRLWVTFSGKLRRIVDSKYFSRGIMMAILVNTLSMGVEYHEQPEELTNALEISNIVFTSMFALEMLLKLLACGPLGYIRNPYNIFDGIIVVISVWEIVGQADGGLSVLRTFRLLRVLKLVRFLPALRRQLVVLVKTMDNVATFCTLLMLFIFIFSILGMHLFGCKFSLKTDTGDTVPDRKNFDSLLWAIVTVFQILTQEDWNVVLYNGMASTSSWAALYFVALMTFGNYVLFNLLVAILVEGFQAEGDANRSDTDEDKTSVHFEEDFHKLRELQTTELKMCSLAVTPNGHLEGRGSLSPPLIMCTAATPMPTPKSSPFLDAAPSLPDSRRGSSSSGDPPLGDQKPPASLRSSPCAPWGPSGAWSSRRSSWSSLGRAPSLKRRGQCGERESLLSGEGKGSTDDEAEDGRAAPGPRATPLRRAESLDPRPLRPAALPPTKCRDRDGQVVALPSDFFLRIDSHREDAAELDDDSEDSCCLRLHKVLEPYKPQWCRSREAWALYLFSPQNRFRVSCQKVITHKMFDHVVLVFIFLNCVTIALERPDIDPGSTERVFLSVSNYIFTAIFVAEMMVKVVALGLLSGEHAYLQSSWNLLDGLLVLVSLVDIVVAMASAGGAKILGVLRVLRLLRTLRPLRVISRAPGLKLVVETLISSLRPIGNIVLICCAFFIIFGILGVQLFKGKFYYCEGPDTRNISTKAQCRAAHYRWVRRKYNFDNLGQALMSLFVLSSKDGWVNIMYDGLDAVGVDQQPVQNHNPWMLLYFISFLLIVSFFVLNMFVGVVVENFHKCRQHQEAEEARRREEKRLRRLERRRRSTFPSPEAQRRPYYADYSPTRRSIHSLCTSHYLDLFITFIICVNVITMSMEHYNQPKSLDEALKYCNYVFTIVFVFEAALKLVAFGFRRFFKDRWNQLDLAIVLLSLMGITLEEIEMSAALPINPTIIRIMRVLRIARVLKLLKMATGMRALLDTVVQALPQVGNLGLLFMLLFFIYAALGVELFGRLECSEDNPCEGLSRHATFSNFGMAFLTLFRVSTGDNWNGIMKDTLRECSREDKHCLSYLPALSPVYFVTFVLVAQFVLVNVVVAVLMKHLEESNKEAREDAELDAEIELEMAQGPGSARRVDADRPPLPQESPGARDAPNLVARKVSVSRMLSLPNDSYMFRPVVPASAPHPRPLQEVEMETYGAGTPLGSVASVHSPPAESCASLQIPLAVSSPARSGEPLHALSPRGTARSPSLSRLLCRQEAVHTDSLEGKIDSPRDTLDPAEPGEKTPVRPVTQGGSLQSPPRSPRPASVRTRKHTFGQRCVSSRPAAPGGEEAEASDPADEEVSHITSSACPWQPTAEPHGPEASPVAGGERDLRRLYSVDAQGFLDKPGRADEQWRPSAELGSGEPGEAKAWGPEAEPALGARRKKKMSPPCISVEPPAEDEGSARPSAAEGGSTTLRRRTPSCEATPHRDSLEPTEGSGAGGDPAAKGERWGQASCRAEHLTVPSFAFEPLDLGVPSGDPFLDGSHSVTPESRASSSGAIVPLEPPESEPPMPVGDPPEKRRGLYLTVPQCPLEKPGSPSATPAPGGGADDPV

**Q.** For `CC(C)c1ccc(CC(=O)NC2CN(c3ccc(C(F)(F)F)nc3)C2)cc1` [Example 118, 2-(4-Isopropylphenyl)-N-(1-(6-(trifluoromethyl)pyridin-3-yl)azetidin-3-yl)acetamide], which IC50 is on record?
**A.** The IC50 was 2100 nM.

**Q.** How did the IC50 turn out when `O=C(Cc1ccc(C2CC2)cc1)N[C@@H]1CCN(c2cc(C(F)(F)F)ccn2)C1` [Example 182, (R)-2-(4-cyclopropylphenyl)-N-(1-(4-(trifluoromethyl)pyridin-2-yl)pyrrolidin-3-yl)acetamide] was run?
**A.** The IC50 was 720 nM.

**Q.** How did the IC50 turn out when `O=C(Cc1ccc2cc[nH]c2c1)N[C@@H]1CCN(c2nc(C(F)(F)F)cs2)C1` [Example 187, (R)-2-(1H-indol-6-yl)-N-(1-(4-(trifluoromethyl)thiazol-2-yl)pyrrolidin-3-yl)acetamide] was run?
**A.** The IC50 was 510 nM.

**Q.** With `O=C(Cc1ccc(C2CC2)cc1)NC1(CO)CCN(c2cncc(C(F)(F)F)c2)C1` (stereo not shown) [Example 103, 2-(4-cyclopropylphenyl)-N-(3-(hydroxymethyl)-1-(5-(trifluoromethyl)pyridin-3-yl)pyrrolidin-3-yl)acetamide] as the compound, how does the IC50 read?
**A.** The IC50 was 140 nM.

**Q.** For `O=C(Cc1ccc(N2C3CCC2COC3)cc1)N[C@@H]1CCN(c2cncc(C(F)(F)F)c2)C1` [Example 149, 2-(4-(3-Oxa-8-azabicyclo[3.2.1]octan-8-yl)phenyl)-N—((R)-1-(5-(trifluoromethyl)pyridin-3-yl)pyrrolidin-3-yl) acetamide], which IC50 is on record?
**A.** Its IC50 is 69 nM.

**Q.** Which IC50 does the source give for `O=C(N[C@@H]1CCN(c2cncc(C(F)(F)F)c2)C1)C1(c2ccc(Cl)cc2)CC1` [Example 24, (R)-1-(4-chlorophenyl)-N-(1-(5-(trifluoromethyl)pyridin-3-yl)pyrrolidin-3-yl)cyclopropane-1-carboxyamide] here?
**A.** Its IC50 is 720 nM.

**Q.** How did the IC50 turn out when `CC(C)c1ccc(CC(=O)N[C@H]2CCN(c3cncc(C(F)(F)F)c3)C2)cc1` [Example 114, (S)-2-(4-isopropylphenyl)-N-(1-(5-(trifluoromethyl)pyridin-3-yl)pyrrolidin-3-yl)acetamide] was run?
**A.** The IC50 was 1200 nM.

**Q.** With `O=C(N[C@@H]1CCN(c2cccc(C(F)(F)F)c2)C1)[C@H]1C[C@@H]1c1nc2ccccc2n1C1CC1` [Example 75, (1S,2S)-2-(1-cyclopropyl-1H-benzo[d]imidazol-2-yl)-N—((R)-1-(3-(trifluoromethyl)phenyl)pyrrolidin-3-yl)cyclopropane-1-carboxyamide] as the compound, how does the IC50 read?
**A.** Its IC50 is 310 nM.

**Q.** With `COC(=O)C1(NC(=O)Cc2ccc3cc[nH]c3c2)CCN(c2cncc(C(F)(F)F)c2)C1` (stereo not shown) [Example 37, Methyl 3-(2-(1H-indol-6-yl)acetamido)-1-(5-(trifluoromethyl)pyridin-3-yl)pyrrolidine-3-carboxylate] as the compound, how does the IC50 read?
**A.** Its IC50 is 27 nM.

**Q.** `O=C(N[C@@H]1CCN(c2cncc(C(F)(F)F)c2)C1)[C@H]1C[C@@H]1c1nc2cc(F)ccc2o1` [Example 49, (1S,2S)-2-(5-fluorobenzo[d]oxazol-2-yl)-N—((R)-1-(5-(trifluoromethyl)pyridin-3-yl)pyrrolidin-3-yl)cyclopropane-1-carboxyamide] was tested. Which IC50 did it give?
**A.** Its IC50 is 7.1 nM.

**Q.** Which IC50 does the source give for `O=C(N[C@@H]1CCN(c2ccc(C(F)(F)F)nc2)C1)[C@H]1C[C@@H]1c1nc2ccccc2[nH]1` [Example 54, (1S,2S)-2-(1H-benzo[d]imidazol-2-yl)-N—((R)-1-(6-(trifluoromethyl)pyridin-3-yl)pyrrolidin-3-yl)cyclopropane-1-carboxyamide] here?
**A.** The IC50 was 87 nM.

**Q.** With `CN(C)C(C(=O)N[C@@H]1CCN(c2cncc(C(F)(F)F)c2)C1)c1ccc(C2CC2)cc1` (stereo partly drawn) [Example 138, 2-(4-cyclopropylphenyl)-2-(dimethylamino)-N—((R)-1-(5-(trifluoromethyl)pyridin-3-yl)pyrrolidin-3-yl)acetamide hydrochloride] as the compound, how does the IC50 read?
**A.** Its IC50 is 690 nM.

**Q.** With `O=C(Cc1ccc(C(F)(F)F)c(F)c1)N[C@@H]1CCN(c2cncc(C(F)(F)F)c2)C1` [Example 32, (R)-2-(3-fluoro-4-(trifluoromethyl)phenyl)-N-(1-(5-(trifluoromethyl)pyridin-3-yl)pyrrolidin-3-yl)acetamide] as the compound, how does the IC50 read?
**A.** Its IC50 is 150 nM.

**Q.** How did the IC50 turn out when `O=C(N[C@@H]1CCN(c2cncc(C(F)(F)F)c2)C1)C1CC1c1ccc(Cl)cc1` (single isomer, unassigned) [Example 108B] was run?
**A.** Its IC50 is 200 nM.

**Q.** Which IC50 does the source give for `O=C(Cc1ccc2cc[nH]c2c1)N[C@@H]1CCN(c2ccc(C(F)(F)F)nc2)C1` [Example 85, (R)-2-(1H-indol-6-yl)-N-(1-(6-(trifluoromethyl)pyridin-3-yl)pyrrolidin-3-yl)acetamide] here?
**A.** The IC50 was 110 nM.

**Q.** `O=C(Cc1ccc(C(F)(F)F)cc1C(F)(F)F)N[C@@H]1CCN(c2cncc(C(F)(F)F)c2)C1` [Example 140, (R)-2-(2,4-bis(trifluoromethyl)phenyl)-N-(1-(5-(trifluoromethyl)pyridin-3-yl)pyrrolidin-3-yl)acetamide] was tested. Which IC50 did it give?
**A.** The IC50 was 1100 nM.

**Q.** Which IC50 does the source give for `O=C(N[C@@H]1CCCN(c2ccc(C(F)(F)F)nc2)C1)C1CC1c1nc2ccccc2[nH]1` (single isomer, unassigned) [Example 63B] here?
**A.** The IC50 was > 10000 nM.

**Q.** `O=C(Cc1ccc(C(F)(F)F)cc1)N[C@@H]1CCN(c2cncc(C(F)(F)F)c2)C1` [Example 123, (R)-2-(4-(trifluoromethyl)phenyl)-N-(1-(5-(trifluoromethyl)pyridin-3-yl)pyrrolidin-3-yl)acetamide] was tested. Which IC50 did it give?
**A.** Its IC50 is 44 nM.

**Q.** For `Cn1ccc2ccc(CC(=O)N[C@@H]3CCN(c4ccc(C(F)(F)F)nc4)C3)cc21` [Example 92, (R)-2-(1-methyl-1H-indol-6-yl)-N-(1-(6-(trifluoromethyl)pyridin-3-yl)pyrrolidin-3-yl)acetamide], which IC50 is on record?
**A.** Its IC50 is 72 nM.

**Q.** Which IC50 does the source give for `O=C(Cc1ccc(C(F)(F)F)cc1)N[C@@H]1CCN(c2ccc(C(F)(F)F)nc2)C1` [Example 183, (R)-2-(4-(trifluoromethyl)phenyl)-N-(1-(6-(trifluoromethyl)pyridin-3-yl)pyrrolidin-3-yl)acetamide] here?
**A.** The IC50 was 200 nM.

**Q.** Which IC50 does the source give for `CC(C)(O)COc1ccc(CC(=O)N[C@@H]2CCN(c3cncc(C(F)(F)F)c3)C2)cc1` [Example 27, (R)-2-(4-(2-hydroxy-2-methylpropoxy)phenyl)-N-(1-(5-(trifluoromethyl)pyridin-3-yl)pyrrolidin-3-yl)acetamide] here?
**A.** Its IC50 is 700 nM.

**Q.** Which IC50 does the source give for `O=C(Cc1ccc(C(F)(F)F)cc1F)N[C@@H]1CCN(c2cncc(C(F)(F)F)c2)C1` [Example 141, (R)-2-(2-fluoro-4-(trifluoromethyl)phenyl)-N-(1-(5-(trifluoromethyl)pyridin-3-yl)pyrrolidin-3-yl)acetamide] here?
**A.** Its IC50 is 180 nM.

**Q.** For `O=C(Cc1ccc2cccnc2c1)N[C@@H]1CCN(c2cncc(C(F)(F)F)c2)C1` [Example 79, (R)-2-(quinolin-7-yl)-N-(1-(5-(trifluoromethyl)pyridin-3-yl)pyrrolidin-3-yl)acetamide hydrochloride], which IC50 is on record?
**A.** The IC50 was 150 nM.

**Q.** With `O=C(N[C@@H]1CCN(c2cncc(C(F)(F)F)c2)C1)[C@H]1C[C@@H]1c1nc2ccc(F)cc2o1` [Example 44, (1S,2S)-2-(6-fluorobenzo[d]oxazol-2-yl)-N—((R)-1-(5-(trifluoromethyl)pyridin-3-yl)pyrrolidin-3-yl)cyclopropane-1-carboxyamide] as the compound, how does the IC50 read?
**A.** Its IC50 is 14 nM.

**Q.** `O=C(Cc1ccc2[nH]ncc2c1)N[C@@H]1CCN(c2cncc(C(F)(F)F)c2)C1` [Example 159, (R)-2-(1H-indazol-5-yl)-N-(1-(5-(trifluoromethyl)pyridin-3-yl)pyrrolidin-3-yl)acetamide] was tested. Which IC50 did it give?
**A.** Its IC50 is 510 nM.

**Q.** `O=C(N[C@@H]1CCN(c2cncc(C(F)(F)F)c2)C1)C1CC1c1ccc(Br)cc1` (single isomer, unassigned) [Example 100A] was tested. Which IC50 did it give?
**A.** Its IC50 is 9.3 nM.

**Q.** `CC(C)c1ccc(CC(=O)N[C@@H]2CCN(c3nc(C(F)(F)F)cs3)C2)cc1` [Example 112, (R)-2-(4-isopropylphenyl)-N-(1-(4-(trifluoromethyl)thiazol-2-yl)pyrrolidin-3-yl)acetamide] was tested. Which IC50 did it give?
**A.** Its IC50 is 110 nM.

**Q.** Which IC50 does the source give for `O=C(N[C@@H]1CCN(c2cncc(C(F)(F)F)c2)C1)[C@H]1C[C@@H]1c1nc2ccccc2[nH]1` [Example 71, (1S,2S)-2-(1H-benzo[d]imidazol-2-yl)-N—((R)-1-(5-(trifluoromethyl)pyridin-3-yl)pyrrolidin-3-yl)cyclopropane-1-carboxyamide] here?
**A.** Its IC50 is 7.9 nM.
